Data as given in US10463651B2, “3-(1H-pyrrolo[3,2-C]pyridin-2-YL)-1H-indazoles and therapeutic uses thereof” (Samumed, LLC, priority 2015, dated 2019).

Assays:
Type in all cases: cell-based
SW480 colon cancer cells = assay: Cell viability assay (CellTiter-Blue); details: Homo sapiens; for EC50: 96 h, SW480 cell viability, four days, CellTiter-Blue; for inhibition at 10 µM: SW480, 96 h, read-out: percent inhibition at 10 μM
Method: Representative compounds were screened using the following assay procedure to assess the effect on cell viability as described below.
Approximately 2×10^3 SW480 colon cancer cells were seeded into each well and allowed to incubate in the presence or absence of compound for four days at 37° C./5% CO2. Eight replicates of DMSO-treated cells served as controls and cells treated with compound were performed in duplicate.
After incubation, 20 μL of CellTiter-Blue (Promega) was added to each well allowed to incubate for approximately 3 hours. This reagent was a buffered solution which contains resazurin, metabolically active cells were able to reduce rezarurin (blue) into resorufin (pink) which was highly fluorescent. This measured fluorescence was used as a readout for cell viability.

[1] = test system: primary human fibroblasts derived from IPF patients (LL29 cells) treated with TGF-β1; assay: Inhibition of the fibrotic process (αSMA staining) in TGF-β1-treated fibroblasts; details: Fibroblast, 96 h; for EC50: % αSMA-positive LL29 cells, TGF-β1 20 ng/mL, 4 days; for inhibition at 10 µM: read-out: percent inhibition at 10 μM
Method: Representative compounds were screened using primary human fibroblasts (derived from IPF patients) treated with TGF-β1 to determine their ability to inhibit the fibrotic process.
LL29 cells are plated at 1,500 cells/well in 80 μL/well F12 medium supplemented with 1% Fetal Bovine Serum. […] Wells treated with TGF-P1 and containing DMSO were used as controls. […] Following incubation for 4 days, SYTOX green nucleic acid stain (Life Technologies [Thermo Fisher Scientific]) was added to the wells at a final concentration of 1 μM and incubated at room temperature for 30 min.

IL-6 (THP-1 cells) = assay: IL-6 inhibition in LPS-stimulated THP-1 cells (HTRF); details: Homo sapiens; for EC50: IL6 by HTRF, THP-1 cells, 500 ng/mL LPS, 22 hours; for inhibition at 10 µM: THP-1, read-out: percent inhibition at 10 M
Method: THP-1 cells were cultured in basal media with 1% FBS for 24 hours before the start of the assay. […] THP-1 cells were plated at 5000 cells/well in the 384-well plates and incubated at 37° C. for 2 h. 500 ng/mL of LPS was added after 2 hours and cells were incubated for another 22 hours at 37° C. Plates were spun in a centrifuge for 1 minute at […] and a mixture of anti-IL6 XL665, and anti-IL6 Cryptate diluted in reconstitution buffer (Cisbio Inc.) was added to each well. Following incubation for 3 hrs at room temperature, Homogeneous Time-Resolved Fluorescence (HTRF) was measured using the Envision (Perkin Elmer) at 665 nm and […]. The ratio of fluorescence at 665 nm to 620 nm was used as a readout for IL6 quantification. All samples were processed in duplicate. Readings were normalized to DMSO treated cells and normalized activities were utilized for EC50 calculations using the dose-response log (inhibitor) vs. response-variable slope (four parameters) nonlinear regression feature available in GraphPad Prism 5.0 (or Dotmatics).

[2] = test system: Wnt activity (Sp5-Luc reporter, SW480 colon carcinoma cells); assay: Screening assay for Wnt activity (Sp5-Luc reporter gene assay in SW480 cells); details: Homo sapiens; for EC50: Sp5-Luc reporter, SW480 cells, incubated overnight; for inhibition at 10 µM: SW480, read-out: percent inhibition at 10 μM
Excerpt: The screening assay for Wnt activity is described as follows. Reporter cell lines can be generated by stably transducing cancer cell lines (e.g., colon cancer) or primary cells (e.g., IEC-6 intestinal cells) with a lentiviral construct that includes a Wnt-responsive promoter driving expression of the firefly luciferase gene.
SW480 colon carcinoma cells were transduced with a lentiviral vector expressing luciferase with a human Sp5 promoter consisting of a sequence of eight TCF/LEF binding sites. SW480 cells stably expressing the Sp5-Luc reporter gene and a hygromycin resistance gene were selected by treatment with 150 μg/mL of hygromycin for 7 days. These stably transduced SW480 cells were expanded in cell culture and used for all further screening activities. […] For Sp5-Luc reporter gene assays, the cells were plated at 4,000 cells/well in 384-well plates with medium containing 1% fetal bovine serum and incubated overnight at 37° C. and 5% CO2. Following incubation, 20 μl of BrightGlo luminescence reagent (Promega) was added to each well of the 384-well assay plates. The plates were placed on an orbital shaker for 2 min and then luminescence was quantified using the Envision (Perkin Elmer) plate reader. Readings were normalized to DMSO only treated cells, and normalized activities were utilized for EC50 calculations using the dose-response log (inhibitor) vs. response-variable slope (four parameters) nonlinear regression feature available in GraphPad Prism 5.0 (or Dotmatics).

Compound | EC50 (SW480 colon cancer cells) [nM] | EC50 [1] [nM] | EC50 (IL-6 (THP-1 cells)) [nM] | EC50 [2] [nM] | inhibition at 10 µM (IL-6 (THP-1 cells)) [%] | inhibition at 10 µM [2] [%] | inhibition at 10 µM (SW480 colon cancer cells) [%] | inhibition at 10 µM [1] [%]
O=C(Cc1ccccc1)Nc1cncc(-c2ccc3[nH]nc(-c4cc5c(-c6cccc(F)c6)nccc5[nH]4)c3c2)c1 [Compound 10, N-(5-(3-(4-(3-Fluorophenyl)-1H-pyrrolo[3,2-c]pyridin-2-yl)-1H-indazol-5-yl)pyridin-3-yl)-2-phenylacetamide] | 1020 | 630 | 660 | 875 |  |  |  | 
Fc1cccc(-c2nccc3[nH]c(-c4n[nH]c5ccc(-c6ccncc6)cc45)cc23)c1 [Compound 18, 3-(4-(3-Fluorophenyl)-1H-pyrrolo[3,2-c]pyridin-2-yl)-5-(pyridin-4-yl)-1H-indazole] | 1860 | 4350 | > 10000 | > 10000 | 8.4 | 58.3 |  | 
O=C(Nc1cncc(-c2ccc3[nH]nc(-c4cc5c(-c6cccc(F)c6)nccc5[nH]4)c3c2)c1)C1CCCCC1 [Compound 23, N-(5-(3-(4-(3-Fluorophenyl)-1H-pyrrolo[3,2-c]pyridin-2-yl)-1H-indazol-5-yl)pyridin-3-yl)cyclohexanecarboxamide] | 1140 | 1460 | 108 | 1400 |  |  |  | 
Fc1cccc(-c2nccc3[nH]c(-c4n[nH]c5ccc(-c6ccccn6)cc45)cc23)c1 [Compound 28, 3-(4-(3-Fluorophenyl)-1H-pyrrolo[3,2-c]pyridin-2-yl)-5-(pyridin-2-yl)-1H-indazole] | 576 | 421 | 3090 | 1080 |  |  |  | 
CC(C)CC(=O)Nc1cncc(-c2ccc3[nH]nc(-c4cc5c(-c6ccc(F)cc6)nccc5[nH]4)c3c2)c1 [Compound 30, N-(5-(3-(4-(4-Fluorophenyl)-1H-pyrrolo[3,2-c]pyridin-2-yl)-1H-indazol-5-yl)pyridin-3-yl)-3-methylbutanamide] | 439 | 329 | 1300 | 442 |  |  |  | 
Cc1ccncc1-c1ccc2[nH]nc(-c3cc4c(-c5ccc(F)cc5)nccc4[nH]3)c2c1 [Compound 33, 3-(4-(4-Fluorophenyl)-1H-pyrrolo[3,2-c]pyridin-2-yl)-5-(4-methylpyridin-3-yl)-1H-indazole] | 3850 | 2000 | > 10000 | 3720 | 36.8 |  |  | 
CC(C)(C)C(=O)Nc1cncc(-c2ccc3[nH]nc(-c4cc5c(-c6ccc(F)cc6)nccc5[nH]4)c3c2)c1 [Compound 36, N-(5-(3-(4-(4-Fluorophenyl)-1H-pyrrolo[3,2-c]pyridin-2-yl)-1H-indazol-5-yl)pyridin-3-yl)pivalamide] | 659 | 745 | 207 | 742 |  |  |  | 
O=C(Nc1cncc(-c2ccc3[nH]nc(-c4cc5c(-c6ccc(F)cc6)nccc5[nH]4)c3c2)c1)c1ccccc1 [Compound 39, N-(5-(3-(4-(4-Fluorophenyl)-1H-pyrrolo[3,2-c]pyridin-2-yl)-1H-indazol-5-yl)pyridin-3-yl)benzamide] | 540 | 501 | 3460 | 1610 |  |  |  | 
CC(C)Nc1cncc(-c2ccc3[nH]nc(-c4cc5c(-c6ccc(F)cc6)nccc5[nH]4)c3c2)c1 [Compound 40, 5-(3-(4-(4-Fluorophenyl)-1H-pyrrolo[3,2-c]pyridin-2-yl)-1H-indazol-5-yl)-N-isopropylpyridin-3-amine] | 779 | 549 | 545 | 539 |  |  |  | 
CC(C)(C)CC(=O)Nc1cncc(-c2ccc3[nH]nc(-c4cc5c(-c6ccc(F)cc6)nccc5[nH]4)c3c2)c1 [Compound 44, N-(5-(3-(4-(4-Fluorophenyl)-1H-pyrrolo[3,2-c]pyridin-2-yl)-1H-indazol-5-yl)pyridin-3-yl)-3,3-dimethylbutanamide] | > 10000 | > 10000 | > 10000 | > 10000 | 35 | 19.5 | 7.7 | 0
CC(C)(C)CC(=O)Nc1cncc(-c2ccc3[nH]nc(-c4cc5c(-c6ccccc6F)nccc5[nH]4)c3c2)c1 [Compound 72, N-(5-(3-(4-(2-Fluorophenyl)-1H-pyrrolo[3,2-c]pyridin-2-yl)-1H-indazol-5-yl)pyridin-3-yl)-3,3-dimethylbutanamide] | > 10000 | > 10000 | 489 | 445 |  |  | 9.6 | 0
Fc1ccccc1-c1nccc2[nH]c(-c3n[nH]c4ccc(-c5ccccn5)cc34)cc12 [Compound 84, 3-(4-(2-Fluorophenyl)-1H-pyrrolo[3,2-c]pyridin-2-yl)-5-(pyridin-2-yl)-1H-indazole] | 1020 | 659 | 1960 | 1220 |  |  |  | 
CN(C)c1cncc(-c2ccc3[nH]nc(-c4cc5c(-c6cccnc6)nccc5[nH]4)c3c2)c1 [Compound 91, N,N-Dimethyl-5-(3-(4-(pyridin-3-yl)-1H-pyrrolo[3,2-c]pyridin-2-yl)-1H-indazol-5-yl)pyridin-3-amine] | 8080 | > 10000 | 331 | > 10000 |  | 35.7 |  | 46.9
c1cc(-c2ccc3[nH]nc(-c4cc5c(N6CCCCC6)nccc5[nH]4)c3c2)ccn1 [Compound 186, 3-(4-(Piperidin-1-yl)-1H-pyrrolo[3,2-c]pyridin-2-yl)-5-(pyridin-4-yl)-1H-indazole] | 1020 | 832 | > 10000 | 2100 | 53.9 |  |  | 
CC(C)CC(=O)Nc1cncc(-c2ccc3[nH]nc(-c4cc5c(N6CCN(C)CC6)nccc5[nH]4)c3c2)c1 [Compound 226, 3-Methyl-N-(5-(3-(4-(4-methylpiperazin-1-yl)-1H-pyrrolo[3,2-c]pyridin-2-yl)-1H-indazol-5-yl)pyridin-3-yl)butanamide] | 2870 | 2960 | 1420 | 1900 |  |  |  | 
CN1CCN(c2nccc3[nH]c(-c4n[nH]c5ccc(-c6cncc(NC(=O)C7CCCC7)c6)cc45)cc23)CC1 [Compound 246, N-(5-(3-(4-(4-Methylpiperazin-1-yl)-1H-pyrrolo[3,2-c]pyridin-2-yl)-1H-indazol-5-yl)pyridin-3-yl)cyclopentanecarboxamide] | > 10000 | > 10000 | 9510 | > 10000 |  | 17.1 | 34.3 | 0
CN1CCN(c2nccc3[nH]c(-c4n[nH]c5ccc(-c6cncnc6)cc45)cc23)CC1 [Compound 251, 3-(4-(4-Methylpiperazin-1-yl)-1H-pyrrolo[3,2-c]pyridin-2-yl)-5-(pyrimidin-5-yl)-1H-indazole] | > 10000 | 9700 | 8260 | > 10000 |  | 20.2 | 20 | 
CN1CCN(c2nccc3[nH]c(-c4n[nH]c5ccc(-c6ccccn6)cc45)cc23)CC1 [Compound 252, 3-(4-(4-Methylpiperazin-1-yl)-1H-pyrrolo[3,2-c]pyridin-2-yl)-5-(pyridin-2-yl)-1H-indazole] | 4690 | 1460 | 2750 | > 10000 |  | 18.8 |  | 
